Experimental data: US20110178171A1, “COMPOUNDS FOR CANCER THERAPY” (China Medical University, priority 2010, published 2011)

How the values were obtained:
LNCaP cells [1] = test: MTT growth inhibition assay, LNCaP; settings: for IC50: LNCaP, androgen-dependent prostate adenocarcinoma
Protocol: (§1) The LNCaP (androgen-sensitive), PC3 (androgen in-dependent), human prostate cancer and normal human fibroblast 3T3 were obtained from American Type Culture Collection (Manassas, Va.) were maintained with RPMI 1640 medium containing 10% FBS and […] each of penicillin and streptomycin at […] in a humidified atmosphere with 5% CO2.
(§2) The viability of the cells after treated with various chemicals was evaluated using MTT assay preformed in triplicate (Mosmann T. 1983. Rapid colorimetric assay for cellular growth and survival: application to proliferation and cytotoxicity assays”. Journal of immunological methods. 65 (1-2): 55-63). Briefly, the cancer cells (5×10^3) were incubated in 96-well plates containing […] of the culture medium. Cells were permitted to adhere for 12-18 h then washed with phosphate buffered saline (PBS). Solutions were always prepared fresh by dissolving 0.2% DMSO or K8 in culture medium and added to various kind of tumor. After 48 h of exposure, K8 containing medium was removed, washed with PBS and replaced by fresh medium. The cells in each well were then incubated in culture medium with […] MTT for 4 h. After the medium were removed, […] of DMSO and […] of glycine buffer (0.1 M glycine, 0.1 M NaCl, pH 10.5) were added to each well. Absorbance at 570 nm of the maximum was detected by a PowerWave X Microplate ELISA Reader (Bio-TeK Instruments, Winoski, Vt.). The absorbance for DMSO treated cells was considered as 100%. The results were determined by three independent experiments.
Cytotoxicity of K8 (Isochaihulactone) on LNCaP cells was examined in the manner described above. The cells were treated with KS (Isochaihulactone), its Z-form, or its E-form of different concentrations ranging from 2.5 to 20 μM for 24 h.
Cytotoxicities of Z-K8 (Isochaihulactone) on LNCaP (AR-dependent), and PC3 (AR-independent) tumor cell line were examined in the manner described above. The cells were treated with the Z- or E-form K8 (Isochaihulactone) of different concentrations ranging from 0.3125 to 5 μM for 24 h.

PC3 cells = test: MTT growth inhibition assay, PC3; type: cell-based, human; settings: PC3, androgen-independent prostate adenocarcinoma
Protocol: as §1, §2
Cytotoxicities of Z-K8 (Isochaihulactone) on LNCaP (AR-dependent), and PC3 (AR-independent) tumor cell line were examined in the manner described above. […]

[2] = tested on: oral cancer cell line OECM-1; test: MTT growth inhibition assay, OECM-1; type: cell-based; settings: OECM-1, oral squamous cell carcinoma
Protocol: (§3) The results were determined by three independent experiments.
(§4) Besides, the above assay was also conducted on gastric cancer cell line NCI-N87, liver cancer cell line HepG2 and J5, lung cancer cell line A549, and oral cancer cell line OECM-1.

[3] = tested on: lung cancer cell line A549; test: MTT growth inhibition assay, A549; type: cell-based, human; settings: A549, lung adenocarcinoma
Protocol: as §3, §4

LNCaP xenografts = test: Antitumor activity in vivo, LNCaP xenograft; design: species or system mice; settings: for Tumor growth volume (mm^3): 30 mg/kg s.c. days 0-4
Protocol: Xenograft mice as a model system to study cytotoxicity effect of isochaihulactone in vivo: the implantation of cancer cells (LNCaP) were carried out similarly to previous reports. Female congenital athymic BALB/c nude (nu/nu) mice were purchased from National Sciences Council (Taipei, Taiwan) and all procedures were performed in compliance with the standard operating procedures of the Laboratory Animal Center of China Medical University (Taichung, Taiwan). All experiments were carried out using 6-8-week old mice weighing 18-22 g. The animals were s.c. implanted with 1×10^7 cell sinto the back of mice. When the tumor reached 80-120 mm3 in volume, animals were divided randomly into control and test groups consisting of six mice per group (day 0). Daily s.c. administration of z-K8, dissolved in a vehicle of 20% Tween 80 in normal saline (v/v) was performed from days 0 to 4 far from the inoculated tumor sites (>1.5 cm). The control group was treated with vehicle only. The mice were weighed three times a week up to days 21-28 to monitor the effects and the same time the tumor volume was determined by measurement of the length (L) and width (W) of the tumor. The tumor volume at day n (TVn) was calculated as TV (mm3)=(L×W^2)/2. The relative tumor volume at day n (RTVn) versus day 0 was expressed according to the following formula: RTVn=TVn/TV0. Tumor regression (T/C(%)) in treated versus control mice was calculated using: T/C(%)=(mean RTV of treated group)/(mean RTV of control group)×100. Xenograft tumors as well as other vital organs of treated and control. The results are shown in Tables 6 and 7 and FIGS. 6 and 7.
(§5) Assays were carried out to examine the inhibition of human xenografts growth in vivo by isochaihulactone. Briefly, LNCaP tumor-bearing mice were administered s.c. with vehicle control, 30 mg/kg E-K8, and Z-K8 respectively on days 0-4 for 5 days. The volumes of the tumors were measured. […] Scale bars, […]. Data represent means W S.D. of tumor volume at each time
as §5, with “Z-K8. Again,” for “isochaihulactone. Briefly,”, “Z-K8 15” for “30”, “mg/kg” for “mg/kg E-K8, and Z-K8 respectively”, “time point.” for “time”

[4] = tested on: liver cancer cell line J5; test: MTT growth inhibition assay, J5; type: cell-based; settings: J5, hepatocarcinoma
Protocol: as §3, §4

[5] = tested on: liver cancer cell line HepG2; test: MTT growth inhibition assay, HepG2; type: cell-based; settings: HepG2, hepatocarcinoma
Protocol: as §3, §4

LNCaP cells [6] = test: Cell cycle analysis by flow cytometry; type: cell-based, human; settings: 20 nM
Protocol: The cell cycle was determined by flow cytometry with DNA staining to reveal the total amount of DNA. Approximately 5×10^5 of cells were incubated in various concentration of isochaihulactone for the indicated time. Cells were harvested by treating the cells with trypsin/EDTA. The cells were collected, washed with PBS, fixed with cold 70% ethanol overnight, and then stained with a solution containing […] PI, 10 mg/ml RNase A, and 0.1% Triton X-100 for 1 h in the dark. The cells will then pass through FACScan flow cytometer (equipped with a 488-nmargon laser) to measure the DNA content. The data was obtained and analyzed with CellQuest 3.0.1 (Becton Dickinson, Franklin Lakes, N.J.) and ModFitLT V2.0 software. The results are shown Table 4 and FIG. 4.
Assays were carried out to examine the effect of Z-K8 in inducing G2/M phase arrest and apoptosis in LNCaP cells. Briefly, the cells were treated with different concentrations of Z-K8 (ranging from 0.25 to 2 μM) for 24 h. The cell cycle analysis was done according to the method described above. As shown in FIG. 4 and Table 4, Z-K8 induced cell cycle G2/M arrest in LNCaP cells.

COc1cc(/C=C2/C(=O)OCC2Cc2ccc3c(c2)OCO3)cc(OC)c1OC (racemic) [E-K8]
Viability (%) (LNCaP cells [1]; 2.5 µM): 86.2% | Viability (%) (LNCaP cells [1]; 5 µM): 72.9% | Viability (%) (LNCaP cells [1]; 10 µM): 69.8% | Viability (%) (LNCaP cells [1]; 20 µM): 65.3% | IC50 (LNCaP cells [1]): > 20 µM | IC50 (PC3 cells): > 20 µM | IC50 [2]: > 1 µM | IC50 [3]: > 100 µM | Tumor growth volume (mm^3) (LNCaP xenografts; day 1 after administration): 0 mm^3 | Tumor growth volume (mm^3) (LNCaP xenografts; day 4 after administration): 118.0 mm^3 | Tumor growth volume (mm^3) (LNCaP xenografts; day 7 after administration): 137.1 mm^3 | Tumor growth volume (mm^3) (LNCaP xenografts; day 10 after administration): 205.7 mm^3 | Tumor growth volume (mm^3) (LNCaP xenografts; day 13 after administration): 313.7 mm^3 | Tumor growth volume (mm^3) (LNCaP xenografts; day 16 after administration): 427.4 mm^3 | Tumor growth volume (mm^3) (LNCaP xenografts; day 19 after administration): 504.7 mm^3 | Tumor growth volume (mm^3) (LNCaP xenografts; day 22 after administration): 633.5 mm^3 | Tumor growth volume (mm^3) (LNCaP xenografts; day 25 after administration): 658.6 mm^3 | Tumor growth volume (mm^3) (LNCaP xenografts; day 28 after administration): 834.9 mm^3 | Tumor growth volume (mm^3) (LNCaP xenografts; day 31 after administration): 894.9 mm^3 | tumor growth inhibition, in words (LNCaP xenografts; LNCaP tumor-bearing mice, 30 mg/kg s.c. days 0-4 (FIG. 6)): tumor growth inhibition effect

COc1cc(/C=C2\C(=O)OC[C@@H]2Cc2ccc3c(c2)OCO3)cc(OC)c1OC [K8, isochaihulactone]
Viability (%) (LNCaP cells [1]; 2.5 µM): 67.4% | Viability (%) (LNCaP cells [1]; 5 µM): 43.6% | Viability (%) (LNCaP cells [1]; 10 µM): 40.9% | Viability (%) (LNCaP cells [1]; 20 µM): 21.0% | IC50 (LNCaP cells [1]): 4.3 µM | IC50 [4]: 21.5 µM | IC50 (PC3 cells): > 100 µM | IC50 [5]: > 20 µM | IC50 [3]: 18.5 µM

CC(=O)O[C@H]1C(=O)[C@@]2(C)[C@H]([C@H](OC(=O)c3ccccc3)[C@]3(O)C[C@H](OC(=O)[C@H](O)[C@@H](NC(=O)c4ccccc4)c4ccccc4)C(C)=C1C3(C)C)[C@]1(OC(C)=O)CO[C@@H]1C[C@@H]2O [toxal, reference compound]
Cells in phase (%) G0/G1 (LNCaP cells [6]): 16.40% | Cells in phase (%) G2/M (LNCaP cells [6]): 40.23% | Cells in phase (%) S (LNCaP cells [6]): 3.95% | Cells in phase (%) Sub-G1 (LNCaP cells [6]): 11.43%
